Source: patent US9133505B2 (priority 2010, dated 2015)
Several values for one entry are separate records, joined by “and”; a condition that tells them apart may be missing. Equal entries are not always repeated. Where two headings read alike, the source gives them in different places.

Experiments:
[1] = test system: Pig-A mutant phenotype RBCs and RETs; experiment: Pig-A mutation assay, technical replicates (Example 1): flow cytometric scoring of CD59-negative RBCs/RETs before and after immunomagnetic separation; conditions: 60 mg/kg/day oral gavage days 1-3, blood day 29
reticulocytes = experiment: Percentage of reticulocytes among total erythrocytes (bone marrow toxicity), pre-magnetic field analysis
[2] = test system: Pig-A mutant phenotype RBCs and RETs; experiment: Pig-A mutation assay, spiking experiment (Example 2); conditions: blood day 35
[3] = Mortality in 28-day 1,3-PS study; type: in vivo, Sprague Dawley rat; conditions: 50 mg/kg/day oral gavage, group of six male rats
Protocol: Groups consisting of six male Sprague Dawley rats (7-8 weeks old) were treated on twenty-eight consecutive days (i.e., days 1 through 28) with either water (vehicle), 12.5 mg 1,3-PS per kilogram body weight per day, 25 mg 1,3-PS per kilogram body weight per day, or 50 mg 1,3-PS per kilogram body weight per day via oral gavage. […] Tail vein blood specimens were collected on day −1 (i.e., one day before the start of treatment), and again on days 15, 29, and 42.

[4] = test system: Pig-A mutant phenotype RBCs and RETs
[5] = calculated from pre- and post-magnetic field ratios, technical replicates, listed as PS
[6] = post-magnetic field, 4 min acquisition, technical replicates, listed as PS
[7] = post-magnetic field, technical replicates, listed as PS
[8] = pre-magnetic field, 3 min acquisition, technical replicates of one rat, listed as PS
[9] = "100" sample: 40 mg/kg/day 1,3-PS days 1-14, from pre- and post-magnetic field ratios (Table VI), listed as 100
[10] = "100" sample: 40 mg/kg/day 1,3-PS days 1-14, post-magnetic field, 4 min, listed as 100
[11] = "100" sample: 40 mg/kg/day 1,3-PS days 1-14, post-magnetic field, listed as 100
[12] = 28 consecutive days oral gavage, 6 male rats per group, maximum observed on d29
[13] = 28 consecutive days oral gavage, 6 male rats per group, maximum observed on d42

## O=S1(=O)CCCO1 [1,3-Propane Sultone, 1,3-propane sultone]
[1]
  Frequencies of mutant phenotype RBCs and RETs versus vehicle (in words): clearly led to elevated frequencies of mutant phenotype RBCs and RETs
[1]; [5]
  Mutant RBCs per 10^6 Total RBCs: 61.1 per 10^6 Total RBCs and 65.7 per 10^6 Total RBCs and 55 per 10^6 Total RBCs
  Mutant RETs per 10^6 Total RETs: 22 per 10^6 Total RETs and 16.6 per 10^6 Total RETs and 17.7 per 10^6 Total RETs
[1]; [6]
  Mutant NCEs (events counted), POST-Magnetic Field Analyses: 6,466 and 7,590 and 7,054
  Mutant RETs (events counted), POST-Magnetic Field Analyses: 95 and 79 and 94
[1]; [7]
  Mutant RBC:Bead Ratio, POST-Magnetic Field Analyses: 0.4138 and 0.4132 (2×)
  Mutant RET:Bead Ratio, POST-Magnetic Field Analyses: 0.00599 and 0.00426 and 0.3748
[1]; [8]
  Mutant NCEs (events counted), PRE-Magnetic Field Analyses: 83 and 75 and 64
  Mutant RETs (events counted), PRE-Magnetic Field Analyses: 1 (2×) and 2
reticulocytes; 60 mg/kg/day oral gavage days 1-3, blood day 29, technical replicates, listed as PS
  % RET: 4.02% and 4.08% (2×)
reticulocytes; 12.5, 25, 50 (reduced to 37.5) mg/kg/day for 28 days, Day 15, FIG. 5A
  % RET versus vehicle (in words): reduced in a dose-dependent manner
reticulocytes; "100" sample: 40 mg/kg/day 1,3-PS oral gavage days 1-14, blood day 35, listed as 100
  % RET: 5.92% and 5.9%
[2]; [9]
  Mutant RBCs per 10^6 Total RBCs: 30 per 10^6 Total RBCs and 34.1 per 10^6 Total RBCs
  Mutant RETs per 10^6 Total RETs: 25.2 per 10^6 Total RETs and 31.2 per 10^6 Total RETs
[2]; "100" sample: 40 mg/kg/day 1,3-PS days 1-14, post-column, avg 112,632,575 RBCs interrogated per sample, listed as 100
  Mutant RBCs per 10^6 Total RBCs (Post-Column): 30 per 10^6 Total RBCs and 34.1 per 10^6 Total RBCs
[2]; [10]
  Mutant NCEs (events counted), POST-Magnetic Field Analyses: 3,304 and 3,192
  Mutant RETs (events counted), POST-Magnetic Field Analyses: 173 and 182
[2]; [11]
  Mutant RBC:Bead Ratio, POST-Magnetic Field Analyses: 0.2402 and 0.2497
  Mutant RET:Bead Ratio, POST-Magnetic Field Analyses: 0.01195 and 0.01347
[2]; "100" sample: 40 mg/kg/day 1,3-PS days 1-14, pre-column, avg 1,323,693 RBCs interrogated per sample
  Mutant RBCs per 10^6 Total RBCs (Pre-Column): 27 per 10^6 Total RBCs
[2]; "100" sample: 40 mg/kg/day 1,3-PS days 1-14, pre-magnetic field, 3 min, listed as 100
  Mutant NCEs (events counted), PRE-Magnetic Field Analyses: 36 and 31
[2]; "100" sample: blood of rat given 40 mg/kg/day 1,3-PS oral gavage days 1-14, pre-magnetic field, 3 min
  Mutant RETs (events counted), PRE-Magnetic Field Analyses: 1
[3]
  Mortality: one rat in the high dose group died on day 11
[4]; 12.5, 25, 50 (reduced to 37.5) mg/kg/day for 28 days, Day 15 through Day 42, FIG. 5C
  Mutant RBC frequency versus vehicle-treated rats (in words): significantly higher than those observed in vehicle-treated rats from Day 15 through Day 42
[4]; 12.5, 25, 50 (reduced to 37.5) mg/kg/day for 28 days, days 15, 29, 42, FIG. 5B, Dunnett's t-test p<0.05
  Mutant RET frequency versus vehicle controls (in words): each dose group was significantly elevated relative to vehicle controls at every time point studied
[4]; [12]
  Maximum Avg. Mutant Cell Freq., Mutant RETs: 106 Mutant RETs (d29); × 10^−6
[4]; [13]
  Maximum Avg. Mutant Cell Freq., Mutant RBCs: 72 Mutant RBCs (d42) × 10^−6

## CC(=O)Nc1ccc2c(c1)Cc1ccccc1-2 [2-Acetylaminofluorene]
[4]; [12]
  Maximum Avg. Mutant Cell Freq., Mutant RBCs: 58 Mutant RBCs (d29) × 10^−6
[4]; [13]
  Maximum Avg. Mutant Cell Freq., Mutant RETs: 50 Mutant RETs (d42); × 10^−6

## Cn1cnc([N+](=O)[O-])c1Sc1ncnc2nc[nH]c12 [Azathioprine]
[4]; male, Sprague Dawley, rat, in vivo, po, 29 day
  Maximum Avg. Mutant Cell Freq., Mutant RETs: 13 Mutant RETs (d29); × 10^−6
[4]; male, Sprague Dawley, rat, in vivo, po, 42 day
  Maximum Avg. Mutant Cell Freq., Mutant RBCs: 4 Mutant RBCs (d42) × 10^−6

## O=C(O)CCCc1ccc(N(CCCl)CCCl)cc1 [Chlorambucil]
[4]; [13]
  Maximum Avg. Mutant Cell Freq., Mutant RBCs: 21 Mutant RBCs (d42) × 10^−6
  Maximum Avg. Mutant Cell Freq., Mutant RETs: 40 Mutant RETs (d42); × 10^−6

## O=P1(N(CCCl)CCCl)NCCCO1 (stereo not drawn) [Cyclophosphamide]
[4]; [12]
  Maximum Avg. Mutant Cell Freq., Mutant RETs: 5 Mutant RETs (d29); × 10^−6
[4]; [13]
  Maximum Avg. Mutant Cell Freq., Mutant RBCs: 3 Mutant RBCs (d42) × 10^−6

## N[C@@H](Cc1ccc(N(CCCl)CCCl)cc1)C(=O)O [Melphalan]
[4]; [13]
  Maximum Avg. Mutant Cell Freq., Mutant RBCs: 23 Mutant RBCs (d42) × 10^−6
  Maximum Avg. Mutant Cell Freq., Mutant RETs: 33 Mutant RETs (d42); × 10^−6

## S=P(N1CC1)(N1CC1)N1CC1 [Thiotepa]
[4]; [12]
  Maximum Avg. Mutant Cell Freq., Mutant RETs: 79 Mutant RETs (d29); × 10^−6
[4]; [13]
  Maximum Avg. Mutant Cell Freq., Mutant RBCs: 69 Mutant RBCs (d42) × 10^−6
